Source: paper PMC9965906, “Discovery and Development Strategies for SARS-CoV-2 NSP3 Macrodomain Inhibitors” (Pathogens, 2023)
Read-outs that look alike come from different tables or passages of the source.

Target: SARS-CoV-2 NSP3 Mac1 (Severe acute respiratory syndrome coronavirus 2, UniProt P0DTD1)
Assay: biochemical
Assay type: binding
Details: for IC50 / IC50 in µM: 8-point 1:1 dilution; for IC50: read-out: IC50; for inhibitory activity in FDA-approved library screen: primary screen at the set screening concentration; for inhibition at 125 µM: read-out: Inhibition at top concentration of 125 µM (%); for inhibition at 50 µM / NSP3 Mac1 inhibition at 50 µM (%): FDA-approved compound library primary screen, single shot
[1] = MIDAS compound library primary screen
[2] = MIDAS hit compounds and analogues, 125 µM
[3] = MIDAS hit compounds and analogues, top concentration 125 µM, duplicate
[4] = BioAscent virtual screening hit compounds, duplicate

SMILES	IC50 in µM [3]	inhibition at 125 µM [2] [%]	further results
CC(=O)N1CCc2nc(N)c(C#N)c(-c3cccc(-c4ccco4)c3)c2C1 [ARUK4004310-001-001, CC(=O)N1CCc2nc(c(c(c2C1)-c1cccc(c1)-c1ccco1)C#N)N]	–	–	inhibition at 25 µM [1]: 61%
CCNC(=O)c1ccc(-c2ccnc3c2ccn3C)o1 [IAL-MD0147, O=C(NCC)C1=CC=C(C2=C3C(N(C)C=C3)=NC=C2)O1]	–	–	Inhibition at top concentration of 125 µM (%) [2]: Not measurable due to compound precipitation; IC50 [3]: 6.8 µM
CCn1ncc2c(C(=O)Nc3cccc(NC(C)=O)c3)cc(-c3ccccc3)nc21 [IAL-MD0025, CCN1N=CC=2C(=CC(=NC12)C=3C=CC=CC3)C(=O)NC=4C=CC=C(NC(=O)C)C4]	Not measurable	–	Inhibition at top concentration of 125 µM (%) [2]: Not measurable
CCCc1nc2c(C)cc(-c3nc4ccccc4n3C)cc2n1Cc1ccc(-c2ccccc2C(=O)O)cc1 [telmisartan, reference compound]	–	–	inhibitory activity in FDA-approved library screen: could yet not measure any inhibitory activity
CN(C)C(=O)c1ccc(-c2ccnc3c2ccn3C)nc1 [IAL-MD0140, O=C(N(C)C)C1=CN=C(C2=C3C(N(C)C=C3)=NC=C2)C=C1]	–	–	Inhibition at top concentration of 125 µM (%) [2]: Not measurable due to compound precipitation; IC50 [3]: 6.9 µM
COc1ccc(-c2cc(C(=O)Nc3nnc[nH]3)c3ccccc3n2)cc1 [IAL-MD0079, COC=1C=CC(=CC1)C=2C=C(C(=O)NC3=NN=CN3)C=4C=CC=CC4N2]	Not measurable	16.3	–
CN(C)S(=O)(=O)c1ccc2nc(C(=O)O)n(O)c2c1 [BCC0019152, CN(C)S(=O)(=O)c1ccc2nc(C(=O)O)n(O)c2c1]	–	–	inhibition at 25 µM [4]: 32.7%
C=CC1=C(C)c2cc3[nH]c(cc4nc(cc5[nH]c(cc1n2)c(C)c5CCC(=O)O)C(CCC(=O)O)=C4C)c(C)c3C=C [Protoporphyrin IX, reference compound]	–	–	inhibition at 50 µM: 75%
Cc1ccc(Cn2ncc3c(C(=O)N4CCNC(=O)C4)cc(C)nc32)cc1 [IAL-MD0124, CC=1C=CC(CN2N=CC=3C(=CC(C)=NC23)C(=O)N4CCNC(=O)C4)=CC1]	Not measurable	–	Inhibition at top concentration of 125 µM (%) [2]: Not measurable
Nc1ccc2nc3c(=O)[nH]c(=O)[nH]c3nc2c1 [BCC0091906, Nc1ccc2nc3c(=O)[nH]c(=O)[nH]c3nc2c1]	–	–	inhibition at 25 µM [4]: 56.2%
CCn1ncc2c(C(=O)N3CCN(C(=O)c4ccccc4)CC3)cc(-c3ccccc3)nc21 [IAL-MD0069, CCN1N=CC=2C(=CC(=NC12)C=3C=CC=CC3)C(=O)N4CCN(CC4)C(=O)C=5C=CC=CC5]	Not measurable	–	Inhibition at top concentration of 125 µM (%) [2]: Not measurable
COc1ccc(NC(=O)c2cc(-c3ccc(C)cc3)nc3onc(C)c23)cc1 [IAL-MD0037, COC=1C=CC(NC(=O)C=2C=C(N=C3ON=C(C)C23)C=4C=CC(C)=CC4)=CC1]	Not measurable	9.3	–
CCn1ncc2c(C(=O)Nc3cc(Cl)ccc3OC)cc(-c3cccs3)nc21 [IAL-MD0038, CCN1N=CC=2C(=CC(=NC12)C3=CC=CS3)C(=O)NC=4C=C(Cl)C=CC4OC]	Not measurable	50.5	–
CCn1ncc2c(C(=O)N3CCOCC3)cc(-c3ccccc3)nc21 [IAL-MD0050, CCN1N=CC=2C(=CC(=NC12)C=3C=CC=CC3)C(=O)N4CCOCC4]	Not measurable	–	Inhibition at top concentration of 125 µM (%) [2]: Not measurable
Nc1ccc2oc(-c3cccnc3)nc2c1 [BCC0105824, Nc1ccc2oc(-c3cccnc3)nc2c1]	–	–	inhibition at 25 µM [4]: 30.1%
CC(C)n1ncc2c(C(=O)N3CCNC(=O)C3(C)C)cc(-c3cccs3)nc21 [IAL-MD0075, CC(C)N1N=CC=2C(=CC(=NC12)C3=CC=CS3)C(=O)N4CCNC(=O)C4(C)C]	Not measurable	30.9	–
COc1cccc(NC(=O)c2cc(-c3cccs3)nc3c2cnn3C(C)C)c1 [IAL-MD0033, COC=1C=CC=C(NC(=O)C=2C=C(N=C3N(N=CC23)C(C)C)C4=CC=CS4)C1]	Not measurable	12.1	–
CCn1ncc2c(C(=O)N(C)CC(=O)NCc3ccco3)cc(-c3cccs3)nc21 [IAL-MD0062, CCN1N=CC=2C(=CC(=NC12)C3=CC=CS3)C(=O)N(C)CC(=O)NCC4=CC=CO4]	Not measurable	42.2	–
Cc1ccc(C(=O)Nc2ccc(S(=O)(=O)O)c3cc(S(=O)(=O)O)cc(S(=O)(=O)O)c23)cc1NC(=O)c1cccc(NC(=O)Nc2cccc(C(=O)Nc3cc(C(=O)Nc4ccc(S(=O)(=O)O)c5cc(S(=O)(=O)O)cc(S(=O)(=O)O)c45)ccc3C)c2)c1 [Suramin hexasodium, reference compound]	–	–	inhibition at 50 µM: 55.8%; inhibitory activity in FDA-approved library screen: confirm the inhibitory activity
CC(C)n1ncc2c(C(=O)N3CCNC(=O)C3)cc(-c3ccco3)nc21 [IAL-MD0070, CC(C)N1N=CC=2C(=CC(=NC12)C3=CC=CO3)C(=O)N4CCNC(=O)C4]	–	83.2	IC50 [3]: 16.3 µM
CCOc1ccc2c(C)c(C(=O)N[C@@H]3CCNC[C@H]3O)oc2c1OCC [IAL-MD0127, O=C(C(O1)=C(C)C2=C1C(OCC)=C(OCC)C=C2)N[C@H]3[C@H](O)CNCC3.[H]Cl]	–	–	inhibition at 25 µM [1]: 40%; IC50 [3]: 38 µM; inhibition at 125 µM: 66.5%

SMILES	IC50 in µM [3]	inhibition at 125 µM [2] [%]	further results
Cn1ccc2c(-c3cncc(C(=O)N4CCCCC4)n3)ccnc21 [IAL-MD0137, O=C(C1=CN=CC(C2=C3C(N(C)C=C3)=NC=C2)=N1)N4CCCCC4]	Not measurable	25.8	–
CC(C)n1ncc2c(C(=O)N3CCCC3)cc(-c3cccs3)nc21 [IAL-MD0083, CC(C)N1N=CC=2C(=CC(=NC12)C3=CC=CS3)C(=O)N4CCCC4]	Not measurable	47.4	–
Cc1nn(C)c2nc(-c3cccs3)cc(C(=O)NC3CCOCC3)c12 [IAL-MD0121, CC1=NN(C)C=2N=C(C=C(C(=O)NC3CCOCC3)C12)C4=CC=CS4]	Not measurable	17.8	–
Nc1c(C(=O)NC2CC2)sc2nc(-c3ccccn3)ccc12 [IAL-MD0017, O=C(C1=C(N)C2=CC=C(C3=NC=CC=C3)N=C2S1)NC4CC4]	–	79.6	inhibition at 25 µM [1]: 58.7%; IC50 [3]: 12.6 µM
CCn1ncc2c(C(=O)N3CCC(C(O)c4ccccc4)CC3)cc(-c3cccs3)nc21 (stereo not shown) [IAL-MD0056, CCN1N=CC=2C(=CC(=NC12)C3=CC=CS3)C(=O)N4CCC(CC4)C(O)C=5C=CC=CC5]	Not measurable	7	–
CC(=O)Nc1ccc(C=Cc2cc(C(=O)O)c3cc(C)ccc3n2)cc1 [IAL-MD0059, CC(=O)NC=1C=CC(C=CC=2C=C(C(=O)O)C=3C=C(C)C=CC3N2)=CC1]	–	63	IC50 [3]: 22.8 µM
CCn1ncc2c(C(=O)NCC(=O)N(C)C)cc(-c3cccs3)nc21 [IAL-MD0074, CCN1N=CC=2C(=CC(=NC12)C3=CC=CS3)C(=O)NCC(=O)N(C)C]	–	77.7	IC50 [3]: 25.3 µM
CN1C(=O)c2ccc(N3CCCC3)cc2C1=O [BCC0067629, CN1C(=O)c2ccc(N3CCCC3)cc2C1=O]	–	–	inhibition at 25 µM [4]: 30.5%
Cn1ccc2c(-c3ncccc3C(N)=O)ccnc21 [IAL-MD0136, O=C(N)C1=C(C2=C3C(N(C)C=C3)=NC=C2)N=CC=C1]	Not measurable	49.7	–
NC(=O)c1ccc[n+]([C@@H]2O[C@H](COP(=O)([O-])OP(=O)(O)OC[C@H]3O[C@@H](n4cnc5c(N)ncnc54)[C@H](O)[C@@H]3O)[C@@H](O)[C@H]2O)c1 [Nadide, reference compound]	–	–	NSP3 Mac1 inhibition at 50 µM (%): 100%; inhibition at 50 µM: 99.9%
Cn1ccc2c(-c3ncccc3C(=O)N3CCCCC3)ccnc21 [IAL-MD0138, O=C(C1=CC=CN=C1C2=C3C(N(C)C=C3)=NC=C2)N4CCCCC4]	–	79.4	IC50 [3]: 36 µM
CC(C)n1ncc2c(C(=O)N3CCC(C)(O)CC3)cc(-c3cccs3)nc21 [IAL-MD0107, CC(C)N1N=CC=2C(=CC(=NC12)C3=CC=CS3)C(=O)N4CCC(C)(O)CC4]	Not measurable	40.5	–
CC(=O)c1ccc(-c2ccc(N)cc2)s1 [IAL-MD0305, CC(=O)c1ccc(-c2ccc(N)cc2)s1]	–	–	inhibition at 187 µM (BioAscent hit compounds, 187 µM, read-out: Inhibition at top screening concentration of 187 µM): 63.1%; Hill slope (BioAscent hit compounds, confirmatory IC50 curves): 0.6; IC50 (BioAscent hit compounds, top concentration 187 µM, duplicate): 28 µM; inhibition at 25 µM [4]: 56.2%
COc1ccc(C(=O)CC(=O)c2ccc(C(C)(C)C)cc2)cc1 [Avobenzone, reference compound]	–	–	NSP3 Mac1 inhibition at 50 µM (%): 62%; inhibition at 50 µM: 61.8%
Cn1ccc2c(-c3ccc(C(=O)N4CCCC4)cn3)ccnc21 [IAL-MD0142, O=C(C1=CN=C(C2=C3C(N(C)C=C3)=NC=C2)C=C1)N4CCCC4]	Not measurable	37.9	–
CC(C)n1ncc2c(C(=O)NCc3cccs3)cc(-c3ccccc3)nc21 [IAL-MD0018, CC(C)N1N=CC=2C(=CC(=NC12)C=3C=CC=CC3)C(=O)NCC4=CC=CS4]	Not measurable	–	Inhibition at top concentration of 125 µM (%) [2]: Not measurable
CNC(=O)c1ccc(C(=O)N2CCC(c3c[nH]c4ncccc34)CC2)cn1 [IAL-MD0115, CNC(=O)C=1C=CC(=CN1)C(=O)N2CCC(CC2)C3=CNC=4N=CC=CC34]	Not measurable	9.3	–
Oc1nc2ccccc2nc1-c1c[nH]c2ccccc12 [BCC0071692, Oc1nc2ccccc2nc1-c1c[nH]c2ccccc12]	–	–	inhibition at 25 µM [4]: 35%
O=c1cc(-c2ccc(Cl)cc2)oc2cc(OCC(O)CS(=O)(=O)c3ccc(Cl)cc3)ccc12 (stereo not shown) [BCC0030992, O=c1cc(-c2ccc(Cl)cc2)oc2cc(OCC(O)CS(=O)(=O)c3ccc(Cl)cc3)ccc12]	–	–	inhibition at 25 µM [4]: 31.6%
CCOc1ccc2nc3cc(N)ccc3c(N)c2c1 [Ethacridine lactate, reference compound]	–	–	inhibition at 50 µM: 49.3%
